Source: ChEMBL document CHEMBL4376834, “Discovery of 4H-Chromen-4-one Derivatives as a New Class of Selective Rho Kinase (ROCK) Inhibitors, which Showed Potent Activity in ex Vivo Diabetic Retinopathy Models” (J Med Chem, 2019)

What was measured:
[1] = biological target: Proto-oncogene tyrosine-protein kinase receptor Ret (Homo sapiens, UniProt P07949, V804L); experiment: Inhibition of recombinant human Ret V804L mutant (658 to end residues) using KKKVSRSGLYRSP as substrate incubated for 40 mins in presence of [gamma33P]ATP by radiometric scintillation counting analysis
[2] = biological target: Inhibitor of nuclear factor kappa-B kinase subunit epsilon (Homo sapiens, UniProt Q14164); experiment: Inhibition of recombinant full length human IKKepsilon using casein as substrate after 40 mins by [gamma-33ATP] by radiometric scintillation counting analysis
[3] = biological target: Cyclin-dependent kinase-like 4 (Homo sapiens, UniProt Q5MAI5); experiment: Inhibition of recombinant full length human CDKL4 in presence of [gamma-33ATP] by radiometric scintillation counting analysis
[4] = biological target: Platelet-derived growth factor receptor beta (Homo sapiens, UniProt P09619); experiment: Inhibition of human PDGFRbeta (557 to end residues) using poly(Glu, Tyr) 4:1 as substrate measured after 40 mins in presence of [gamma33P]ATP by radiometric scintillation counting analysis
[5] = biological target: Serine/threonine-protein kinase B-raf (Homo sapiens, UniProt P15056); experiment: Inhibition of recombinant full length human B-Raf (416 to end residues) using myelin basic protein substrate incubated for 40 mins in presence of [gamma-33ATP] by radiometric scintillation counting analysis
[6] = biological target: Beta-adrenergic receptor kinase 1 (Homo sapiens, UniProt P25098); experiment: Inhibition of recombinant full length human GRK2 using casein as substrate after 40 mins in presence of [gamma-33ATP] by radiometric scintillation counting analysis
CDK9/cyclin T1 = CDK9/cyclin T1 (Homo sapiens, UniProt P50750); experiment: Inhibition of recombinant full length human CDK9/cyclinT1 using KTFCGTPEYLAPE as substrate incubated for 40 mins in presence of [gamma-33ATP] by radiometric scintillation counting analysis; type: protein-complex assay
[7] = biological target: Serine/threonine-protein kinase 32C (Homo sapiens, UniProt Q86UX6); experiment: Inhibition of recombinant human full length STK32C using casein as substrate incubated for 120 mins in presence of [gamma33P]ATP by radiometric scintillation counting analysis
Insulin receptor = Insulin receptor (Homo sapiens, UniProt P06213); experiment: Inhibition of human recombinant IR (1005 to 1310 residues) using KKSRGDYMTMQIG as substrate after 40 mins by [gamma-33ATP] by radiometric scintillation counting analysis
[8] = biological target: Dual specificity mitogen-activated protein kinase kinase 7 (Homo sapiens, UniProt O14733); experiment: Inhibition of recombinant human MKK7 (2 to end residues) using inactive JNK1a1 as substrate incubated for 40 mins by radiometric scintillation counting analysis
[9] = biological target: Insulin receptor-related protein (Homo sapiens, UniProt P14616); experiment: Inhibition of human recombinant IRR (943 to 1266 residues) using myelin basic protein as substrate after 40 mins by [gamma-33ATP] by radiometric scintillation counting analysis
[10] = biological target: Receptor-type tyrosine-protein kinase FLT3 (Homo sapiens, UniProt P36888, D835Y); experiment: Inhibition of recombinant human FLT3 D835Y mutant (564 to end residues) using EAIYAAPFAKKK as substrate after 40 mins in presence of [gamma-33ATP] by radiometric scintillation counting analysis
[11] = biological target: Serine/threonine-protein kinase Chk2 (Homo sapiens, UniProt O96017, I157T); experiment: Inhibition of recombinant human CHK2 I157T mutant (5 to end residues) using KKKVSRSGLYRSP as substrate incubated for 40 mins in presence of [gamma-33ATP] by radiometric scintillation counting analysis
[12] = biological target: Cyclin-dependent kinase 14/Cyclin-Y (Homo sapiens, UniProt O94921); experiment: Inhibition of recombinant full length human CDK14/cyclinY in presence of [gamma-33ATP] by radiometric scintillation counting analysis; type: protein-complex assay
[13] = biological target: Serine/threonine-protein kinase WNK2 (Homo sapiens, UniProt Q9Y3S1); experiment: Inhibition of recombinant human WNK2 (166 to 489 residues) using myelin basic protein as substrate incubated for 40 mins in presence of [gamma33P]ATP by radiometric scintillation counting analysis
[14] = biological target: Serine/threonine-protein kinase N1 (Homo sapiens, UniProt Q16512, V901I); experiment: Inhibition of recombinant human PRK1 V901I (498 to end residues) using KKLNRTLSFAEPG as substrate incubated for 40 mins in presence of [gamma33P]ATP by radiometric scintillation counting analysis
[15] = biological target: Tyrosine-protein kinase ABL1 (Homo sapiens, UniProt P00519, Y253F); experiment: Inhibition of human recombinant ABL1 Y253F mutant (27 to end residues) using EAIYAAPFAKKK as substrate incubated for 40 mins in presence of [gamma-33P]ATP by radiometric scintillation counting analysis
[16] = biological target: MAP kinase-activated protein kinase 3 (Homo sapiens, UniProt Q16644); experiment: Inhibition of recombinant human MAPKAPK3 (2 to end residues) using KKLNRTLSVA as substrate incubated for 40 mins in presence of [gamma-33ATP by radiometric scintillation counting analysis
[17] = biological target: Serine/threonine-protein kinase ICK (Homo sapiens, UniProt Q9UPZ9); experiment: Inhibition of human recombinant ICK (1 to 312 residues) using RRRFRPASPLRGP as substrate after 40 mins by [gamma-33ATP] by radiometric scintillation counting analysis
[18] = biological target: Serine/threonine-protein kinase Chk2 (Homo sapiens, UniProt O96017, R145W); experiment: Inhibition of recombinant human CHK2 R145W mutant (5 to end residues) using KKKVSRSGLYRSP as substrate incubated for 40 mins in presence of [gamma-33ATP] by radiometric scintillation counting analysis
[19] = biological target: Serine/threonine-protein kinase PAK 1 (Homo sapiens, UniProt Q13153); experiment: Inhibition of recombinant human PAK1 (150 to end residues) using RRRLSFAEPG as substrate measured after 40 mins in presence of [gamma33P]ATP by radiometric scintillation counting analysis
[20] = biological target: Serine/threonine-protein kinase PAK 6 (Homo sapiens, UniProt Q9NQU5); experiment: Inhibition of recombinant human PAK6 (382 to end residues) using RRRLSFAEPG as substrate measured after 40 mins in presence of [gamma33P]ATP by radiometric scintillation counting analysis
Ephrin type-A receptor 7 = Ephrin type-A receptor 7 (Homo sapiens, UniProt Q15375); experiment: Inhibition of recombinant human EphA7 (613 to 909 residues) using KTFCGTPEYLAPE as substrate measured after 40 mins in presence of [gamma33ATP] by radiometric scintillation counting analysis
[21] = biological target: Insulin-like growth factor 1 receptor (Homo sapiens, UniProt P08069); experiment: Inhibition of human recombinant activated IGF1R (959 to end residues) using KKKSPGEYVNIEF as substrate after 40 mins by [gamma-33ATP] by radiometric scintillation counting analysis
[22] = biological target: Casein kinase I isoform delta (Homo sapiens, UniProt P48730); experiment: Inhibition of recombinant human CK1delta (1 to 294 residues) using KRRRALS(p)VAS as substrate incubated for 40 mins in presence of [gamma-33ATP] by radiometric scintillation counting analysis

Measured: IC50

Chain of Serine/threonine-protein kinase ICK (Q9UPZ9 whole entry, the tested form may be a part): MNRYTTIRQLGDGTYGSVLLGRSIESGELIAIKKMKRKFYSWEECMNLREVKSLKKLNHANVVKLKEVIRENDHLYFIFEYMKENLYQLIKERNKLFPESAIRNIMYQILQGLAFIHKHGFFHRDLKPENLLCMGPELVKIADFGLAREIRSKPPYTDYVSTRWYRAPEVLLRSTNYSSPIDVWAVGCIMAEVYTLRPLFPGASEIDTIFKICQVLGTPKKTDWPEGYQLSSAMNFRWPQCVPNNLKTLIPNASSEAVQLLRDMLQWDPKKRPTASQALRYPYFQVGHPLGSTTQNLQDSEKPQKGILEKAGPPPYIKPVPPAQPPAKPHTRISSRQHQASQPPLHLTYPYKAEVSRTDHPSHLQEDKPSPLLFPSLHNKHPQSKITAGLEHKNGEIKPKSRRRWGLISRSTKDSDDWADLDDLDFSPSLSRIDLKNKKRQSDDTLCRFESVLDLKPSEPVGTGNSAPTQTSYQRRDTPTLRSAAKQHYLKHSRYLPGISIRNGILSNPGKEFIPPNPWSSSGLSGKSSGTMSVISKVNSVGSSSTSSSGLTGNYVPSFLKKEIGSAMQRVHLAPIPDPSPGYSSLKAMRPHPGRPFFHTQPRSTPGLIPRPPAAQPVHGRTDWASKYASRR
Chain of Serine/threonine-protein kinase 32C (Q86UX6 whole entry, the tested form may be a part): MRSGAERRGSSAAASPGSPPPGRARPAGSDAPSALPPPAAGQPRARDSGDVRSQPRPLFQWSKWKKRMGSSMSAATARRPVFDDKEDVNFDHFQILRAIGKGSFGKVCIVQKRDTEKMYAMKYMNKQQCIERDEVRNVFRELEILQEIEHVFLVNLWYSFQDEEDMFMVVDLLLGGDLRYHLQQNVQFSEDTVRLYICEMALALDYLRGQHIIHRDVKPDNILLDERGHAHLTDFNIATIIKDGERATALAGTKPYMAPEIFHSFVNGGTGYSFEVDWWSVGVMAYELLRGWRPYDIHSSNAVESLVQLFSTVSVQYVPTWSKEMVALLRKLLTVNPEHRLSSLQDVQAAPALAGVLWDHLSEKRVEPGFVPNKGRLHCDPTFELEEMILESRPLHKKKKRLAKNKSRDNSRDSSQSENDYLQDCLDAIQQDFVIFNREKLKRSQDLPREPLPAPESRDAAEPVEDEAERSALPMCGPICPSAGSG
Chain of Platelet-derived growth factor receptor beta (P09619 whole entry): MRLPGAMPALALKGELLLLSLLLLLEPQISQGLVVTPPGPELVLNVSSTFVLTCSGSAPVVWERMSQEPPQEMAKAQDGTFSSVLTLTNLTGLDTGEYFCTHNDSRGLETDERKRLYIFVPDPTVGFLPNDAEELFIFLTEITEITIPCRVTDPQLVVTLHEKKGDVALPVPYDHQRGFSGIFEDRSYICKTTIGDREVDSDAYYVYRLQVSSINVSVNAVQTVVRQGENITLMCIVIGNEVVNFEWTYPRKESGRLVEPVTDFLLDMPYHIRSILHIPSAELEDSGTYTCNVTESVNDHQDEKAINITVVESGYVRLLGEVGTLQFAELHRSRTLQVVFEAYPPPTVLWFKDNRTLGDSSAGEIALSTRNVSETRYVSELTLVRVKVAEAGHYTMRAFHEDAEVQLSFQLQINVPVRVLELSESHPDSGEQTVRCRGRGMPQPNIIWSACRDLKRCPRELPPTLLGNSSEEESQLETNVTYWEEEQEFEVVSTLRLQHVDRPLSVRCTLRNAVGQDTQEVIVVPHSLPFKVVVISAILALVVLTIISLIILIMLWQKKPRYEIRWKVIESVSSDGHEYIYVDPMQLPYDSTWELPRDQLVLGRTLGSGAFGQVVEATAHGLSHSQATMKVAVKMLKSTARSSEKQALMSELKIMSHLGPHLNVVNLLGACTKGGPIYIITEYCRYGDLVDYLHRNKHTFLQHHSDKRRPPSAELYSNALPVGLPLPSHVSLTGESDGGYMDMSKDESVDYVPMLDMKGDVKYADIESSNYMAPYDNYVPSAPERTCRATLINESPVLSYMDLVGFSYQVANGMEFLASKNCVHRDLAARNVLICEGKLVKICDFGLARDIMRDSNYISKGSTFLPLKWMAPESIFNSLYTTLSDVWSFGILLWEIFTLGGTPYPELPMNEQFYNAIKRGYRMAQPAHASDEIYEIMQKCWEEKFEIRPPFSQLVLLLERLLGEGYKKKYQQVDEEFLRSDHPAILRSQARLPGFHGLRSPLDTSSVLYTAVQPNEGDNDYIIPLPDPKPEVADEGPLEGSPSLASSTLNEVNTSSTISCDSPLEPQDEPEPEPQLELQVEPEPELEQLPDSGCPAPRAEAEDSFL
Chain of Insulin receptor (P06213 28-758 limits assumed): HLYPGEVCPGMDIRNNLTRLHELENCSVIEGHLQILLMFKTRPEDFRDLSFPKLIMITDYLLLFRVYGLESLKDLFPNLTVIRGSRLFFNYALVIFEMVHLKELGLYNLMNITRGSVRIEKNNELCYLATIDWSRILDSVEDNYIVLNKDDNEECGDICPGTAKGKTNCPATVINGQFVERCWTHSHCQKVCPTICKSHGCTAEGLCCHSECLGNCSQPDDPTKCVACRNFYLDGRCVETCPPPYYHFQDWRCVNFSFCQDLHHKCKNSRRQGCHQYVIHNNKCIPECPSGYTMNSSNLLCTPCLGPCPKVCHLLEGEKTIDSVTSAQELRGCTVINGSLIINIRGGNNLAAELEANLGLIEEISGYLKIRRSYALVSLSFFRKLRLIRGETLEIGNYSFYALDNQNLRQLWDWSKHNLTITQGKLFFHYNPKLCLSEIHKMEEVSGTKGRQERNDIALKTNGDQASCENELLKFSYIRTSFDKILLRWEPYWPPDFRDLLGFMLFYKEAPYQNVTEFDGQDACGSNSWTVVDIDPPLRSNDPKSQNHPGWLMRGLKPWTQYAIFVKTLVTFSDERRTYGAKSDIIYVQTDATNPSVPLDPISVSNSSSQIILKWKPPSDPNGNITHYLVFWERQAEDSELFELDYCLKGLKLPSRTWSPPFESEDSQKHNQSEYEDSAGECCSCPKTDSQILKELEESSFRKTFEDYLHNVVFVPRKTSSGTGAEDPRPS
Chain of Insulin receptor (P06213 763-1382 limits assumed): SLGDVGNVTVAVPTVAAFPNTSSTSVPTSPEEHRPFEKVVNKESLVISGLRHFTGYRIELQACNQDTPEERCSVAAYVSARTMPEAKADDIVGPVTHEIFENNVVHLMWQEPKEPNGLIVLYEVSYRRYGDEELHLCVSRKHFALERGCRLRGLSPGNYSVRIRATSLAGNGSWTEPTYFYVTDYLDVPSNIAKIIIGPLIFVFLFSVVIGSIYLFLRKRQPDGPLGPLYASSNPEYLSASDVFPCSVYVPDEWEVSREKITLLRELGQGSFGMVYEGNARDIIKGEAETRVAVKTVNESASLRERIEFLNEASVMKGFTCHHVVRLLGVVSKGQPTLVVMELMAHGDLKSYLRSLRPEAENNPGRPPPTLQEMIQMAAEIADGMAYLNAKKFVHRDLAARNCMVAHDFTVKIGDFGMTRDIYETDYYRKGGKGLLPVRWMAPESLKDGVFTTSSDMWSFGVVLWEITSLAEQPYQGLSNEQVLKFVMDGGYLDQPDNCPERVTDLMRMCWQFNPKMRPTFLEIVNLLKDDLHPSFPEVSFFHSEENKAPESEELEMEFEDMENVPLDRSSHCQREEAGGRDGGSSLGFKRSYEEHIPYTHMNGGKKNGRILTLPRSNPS
Chain of Cyclin-dependent kinase 14/Cyclin-Y (O94921 whole entry, the tested form may be a part): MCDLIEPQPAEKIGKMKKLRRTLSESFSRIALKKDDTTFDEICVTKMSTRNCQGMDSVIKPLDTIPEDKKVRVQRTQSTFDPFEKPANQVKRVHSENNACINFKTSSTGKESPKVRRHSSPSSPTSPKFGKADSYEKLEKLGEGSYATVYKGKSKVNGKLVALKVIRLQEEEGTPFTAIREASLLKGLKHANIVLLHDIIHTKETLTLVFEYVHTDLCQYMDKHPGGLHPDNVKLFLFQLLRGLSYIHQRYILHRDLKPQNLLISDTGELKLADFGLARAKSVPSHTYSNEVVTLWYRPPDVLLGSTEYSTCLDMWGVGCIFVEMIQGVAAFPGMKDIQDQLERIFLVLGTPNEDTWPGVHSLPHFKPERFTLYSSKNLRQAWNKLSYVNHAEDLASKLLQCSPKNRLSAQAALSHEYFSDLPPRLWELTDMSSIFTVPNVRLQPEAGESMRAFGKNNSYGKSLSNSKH
Chain of Cyclin-dependent kinase 14/Cyclin-Y (Q8ND76 whole entry, further chain, the tested form may be a part): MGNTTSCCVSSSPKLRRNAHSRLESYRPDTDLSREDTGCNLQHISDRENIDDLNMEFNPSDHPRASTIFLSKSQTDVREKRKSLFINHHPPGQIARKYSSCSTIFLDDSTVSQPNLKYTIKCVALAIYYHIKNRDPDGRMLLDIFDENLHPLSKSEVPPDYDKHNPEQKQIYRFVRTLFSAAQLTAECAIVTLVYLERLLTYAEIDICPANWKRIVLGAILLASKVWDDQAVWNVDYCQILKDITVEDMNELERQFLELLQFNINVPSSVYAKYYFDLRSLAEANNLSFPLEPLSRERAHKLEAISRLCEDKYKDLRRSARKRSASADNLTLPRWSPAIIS
Chain of Dual specificity mitogen-activated protein kinase kinase 7 (O14733 whole entry, the tested form may be a part): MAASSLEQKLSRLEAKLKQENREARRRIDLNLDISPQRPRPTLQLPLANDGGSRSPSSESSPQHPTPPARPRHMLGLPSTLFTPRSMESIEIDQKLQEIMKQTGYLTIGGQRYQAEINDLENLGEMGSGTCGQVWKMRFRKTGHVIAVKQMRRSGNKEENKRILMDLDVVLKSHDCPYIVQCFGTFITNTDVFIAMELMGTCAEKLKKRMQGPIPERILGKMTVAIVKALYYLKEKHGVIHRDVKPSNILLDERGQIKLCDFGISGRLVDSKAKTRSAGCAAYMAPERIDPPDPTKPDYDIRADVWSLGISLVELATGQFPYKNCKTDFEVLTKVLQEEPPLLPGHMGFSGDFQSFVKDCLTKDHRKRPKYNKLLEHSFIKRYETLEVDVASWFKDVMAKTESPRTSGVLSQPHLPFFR

CN(C)c1ccc(C(=O)Nc2cccc(NC(=O)COc3ccc4c(=O)ccoc4c3)c2)cc1
> 10 µM: [1] | [2] | [3] | [4] | [5] | [6] | CDK9/cyclin T1 | [7] | Insulin receptor | [8] | [9] | [10] | [11] | [12] | [13] | [14] | [15] | [16] | [17] | [18] | [19] | [20] | Ephrin type-A receptor 7 | [21] | [22]
